Assays:
[1] = test system: normal NK cells expanded with K562-aAPC; experiment: drug sensitivity score (DSS) (DSS units); higher = more sensitive; extreme values may be limits of the assay; details: 72 h; IL-2 2.5 ng/mL
Procedure: (§1)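 Drug sensitivity and resistance testing on K562-aAPC-expanded normal NK cells: 5 concentrations (10-fold steps over a 10,000-fold range), 72 h at 37 °C, viability by CellTiter-Glo normalised to DMSO and benzethonium chloride controls; DSS from the fitted curve.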

[2] = test system: normal primary NK cells, pool 3 (3 donors) (IL-2 2.5 ng/mL); experiment: as above; details: 72 h
[3] = test system: YT (IL-2 2.5 ng/mL); experiment: as above; details: 72 h
[4] = test system: KAI3 (IL-2 2.5 ng/mL); experiment: as above; details: 72 h
[5] = test system: NKL (IL-2 2.5 ng/mL); experiment: as above; details: 72 h
[6] = test system: IMC-1 (IL-2 20 ng/mL); experiment: as above; details: 72 h
[7] = test system: DERL-7 (IL-2 2.5 ng/mL); experiment: as above; details: 72 h
[8] = test system: normal primary NK cells, pool 1 (3 donors), resting (IL-2 0 ng/mL); experiment: as above; details: 72 h
[9] = test system: NK-92 (IL-2 2.5 ng/mL); experiment: as above; details: 72 h
[10] = test system: NK-YS (IL-2 2.5 ng/mL); experiment: as above; details: 72 h
[11] = test system: KHYG-1 (IL-2 2.5 ng/mL); experiment: as above; details: 72 h
[12] = test system: SNK-6 (IL-2 2.5 ng/mL); experiment: as above; details: 72 h
[13] = test system: normal primary NK cells, pool 1 (3 donors) (IL-2 2.5 ng/mL); experiment: as above; details: 72 h
[14] = test system: normal primary NK cells, pool 2 (3 donors) (IL-2 2.5 ng/mL); experiment: as above; details: 72 h
[15] = test system: normal primary NK cells, pool 3 (3 donors) (IL-2 2.5 ng/mL); experiment: percent inhibition of viability; higher = more inhibition; details: 72 h
[16] = test system: YT (IL-2 2.5 ng/mL); experiment: as above; details: 72 h
[17] = test system: KAI3 (IL-2 2.5 ng/mL); experiment: as above; details: 72 h
[18] = test system: NKL (IL-2 2.5 ng/mL); experiment: as above; details: 72 h
[19] = test system: IMC-1 (IL-2 20 ng/mL); experiment: as above; details: 72 h
[20] = test system: DERL-7 (IL-2 2.5 ng/mL); experiment: as above; details: 72 h
[21] = test system: normal primary NK cells, pool 1 (3 donors), resting (IL-2 0 ng/mL); experiment: as above; details: 72 h
[22] = test system: NK-92 (IL-2 2.5 ng/mL); experiment: as above; details: 72 h
[23] = test system: NK-YS (IL-2 2.5 ng/mL); experiment: as above; details: 72 h
[24] = test system: KHYG-1 (IL-2 2.5 ng/mL); experiment: as above; details: 72 h
[25] = test system: SNK-6 (IL-2 2.5 ng/mL); experiment: as above; details: 72 h
[26] = test system: normal primary NK cells, pool 1 (3 donors) (IL-2 2.5 ng/mL); experiment: as above; details: 72 h
[27] = test system: normal primary NK cells, pool 2 (3 donors) (IL-2 2.5 ng/mL); experiment: as above; details: 72 h
[28] = test system: normal NK cells expanded with K562-aAPC; experiment: as above; details: 72 h, IL-2 2.5 ng/mL
Procedure: as §1

O=C(Nc1cccc(Nc2ncc(Br)c(NCCc3cnc[nH]3)n2)c1)N1CCCC1 [BX-912] (max concentration tested 10000 nM)
Details	drug sensitivity score
[1]	9.08
[2]	5.85
[3]	8.82
[4]	13.7
[5]	9.05
[6]	13.3
[7]	11.4
[8]	2.21
[9]	8.1
[10]	5.99
[11]	14.9
[12]	13.4
[13]	7.12
[14]	7.7

percent inhibition of viability [%]
Details	1 nM	10 nM	100 nM	1000 nM	10000 nM
[15]	-2.12	3.72	-4.74	17.4	59.6
[16]	5.65	4	10.3	27.9	94
[17]	4.7	2.59	15.4	62.1	91.9
[18]	-14.9	-11.4	13.4	37.6	82.2
[19]	-2.34	-6.68	1.1	67.4	100
[20]	2.87	-0.14	-7.54	46.5	100
[21]	-5.56	-0.72	-0.67	-4.14	48.2
[22]	-9.43	-1.33	-2.11	29.9	73.8
[23]	-1.46	-2.48	3.48	12.5	71
[24]	2.7	1.66	7.53	73.7	99.5
[25]	-3.93	-10.2	-7.12	74.4	84.7
[26]	-2.38	3.58	-5.48	24.1	67.8
[27]	-15	-8.59	-3.23	28.3	70.2
[28]	6.59	2.98	3.43	27.4	91.5

COc1ccc(CCc2nc3cc(-c4c(C)noc4C)ccc3n2C[C@H](C)N2CCOCC2)cc1Cl [SGC-CBP30] (max concentration tested 25000 nM)
Details	drug sensitivity score
[1]	5.98
[2]	5.27
[3]	5.56
[4]	2.09
[5]	10.4
[6]	1.04
[7]	13.3
[8]	7.45
[9]	2.67
[10]	6.98
[11]	8.22
[12]	2.41
[13]	9.22
[14]	8.45

percent inhibition of viability [%]
Details	2.5 nM	25 nM	250 nM	2500 nM	25000 nM
[15]	-5.75	-3.57	2.2	8.83	68.9
[16]	-1.31	-7.71	-7.11	10.1	70
[17]	1.53	-3.88	-18.5	-12.8	51.8
[18]	0.5	1.11	1.38	53.1	72.8
[19]	-7.53	-9.31	-8.36	-20.2	35.3
[20]	0.1	3.95	12.3	60.5	96.1
[21]	18.2	2.19	20.6	19.9	86
[22]	-16.2	-20.5	-26.2	-17.7	64.4
[23]	-1.97	-5.16	0.38	22.5	67.9
[24]	-1.44	-8.58	-1.59	16.4	99.4
[25]	-3.48	-9.35	6.99	15.5	20.9
[26]	-4.81	2.68	13	33.8	96.6
[27]	-5.14	-1.93	8.85	24.7	90.1
[28]	-5.48	-4.45	-3.35	8.12	84.2

COc1cc2/c(=N/c3ccc(Br)cc3F)nc[nH]c2cc1OCC1CCN(C)CC1 [Vandetanib] (max concentration tested 1000 nM)
Details	drug sensitivity score
[1]	2.32
[2]	0
[3]	0.08
[4]	0.3
[5]	0
[6]	0.22
[7]	0
[8]	0
[9]	0
[10]	0.03
[11]	0
[12]	7.25
[13]	0
[14]	0.01

percent inhibition of viability [%]
Details	0.1 nM	1 nM	10 nM	100 nM	1000 nM
[15]	-11.4	-7.39	-2.76	-1.3	-0.41
[16]	2.5	1.99	6.02	-0.29	12.9
[17]	0.12	-3.68	-0.86	-6.05	18.6
[18]	-13.3	-15.3	-10	2.48	9
[19]	-1	-1.11	2.06	4.13	13.1
[20]	-0.64	-4.35	-15.9	-3.72	3.05
[21]	7.75	-11.8	-1.4	-19.4	11.2
[22]	-4.34	-9.89	-2.18	-8.76	7.58
[23]	-3.92	-3.47	0.22	0.66	11.3
[24]	-1.45	0.56	5.16	2.56	12.2
[25]	12.7	14.6	14.3	33.2	24.4
[26]	-5.01	-0.24	-7.43	-15.2	2.01
[27]	-2.11	0.59	-1.27	-7.23	12.3
[28]	-8.6	1.05	-3.45	6.91	29.5

Nc1ncn([C@H]2C[C@H](O)[C@@H](CO)O2)c(=O)n1 [Decitabine] (max concentration tested 10000 nM)
Details	drug sensitivity score
[1]	5.69
[2]	3.32
[3]	5.68
[4]	21
[5]	3.12
[6]	6.54
[7]	14.1
[8]	1.82
[9]	12.6
[10]	9.23
[11]	11.7
[12]	23.5
[13]	1.27
[14]	1.92

percent inhibition of viability [%]
Details	1 nM	10 nM	100 nM	1000 nM	10000 nM
[15]	-2.52	-0.43	2.61	5.08	47.6
[16]	9.12	6.63	10.1	24.2	47.4
[17]	10.1	26.4	51.8	58.8	73
[18]	0.73	9.17	7.62	27.4	15
[19]	6.19	9.72	18.9	18.9	49.6
[20]	0.66	-1.23	21.1	60.8	92.3
[21]	3.59	-12.2	2.07	-6.83	43.9
[22]	14.1	7.13	28.5	42.4	81.5
[23]	2.7	4.69	16.5	38	64.8
[24]	4.42	1.27	13.6	51.4	89.8
[25]	3.81	14.8	64.3	70.1	78.8
[26]	8.63	2.5	-2.22	-0.78	30.4
[27]	-3.35	-1.69	-11.7	3	32.2
[28]	3.63	6.61	11.9	21.8	56.1

Cc1ccc(-c2cc(C(F)(F)F)nn2-c2ccc(S(N)(=O)=O)cc2)cc1 [Celecoxib] (max concentration tested 10000 nM)
Details	drug sensitivity score
[1]	0.46
[2]	0.08
[3]	1.78
[4]	0.73
[5]	0
[6]	1.17
[7]	0.68
[8]	1.32
[9]	2.8
[10]	0.44
[11]	0
[12]	7.44
[13]	0.17
[14]	0.61

percent inhibition of viability [%]
Details	1 nM	10 nM	100 nM	1000 nM	10000 nM
[15]	-11.6	1.86	9.55	-0.12	12.8
[16]	6.8	6.48	10.3	10.8	21.6
[17]	-0.1	5.86	3.78	10.9	16.6
[18]	12.9	8.06	8.99	8.49	13.6
[19]	-1.63	4.12	3.17	8.92	21.4
[20]	-4.04	-0.66	2.98	0.77	20.1
[21]	-5.64	-19.9	-6.8	-14.5	38.8
[22]	-11.1	9.29	13.9	6.91	36.8
[23]	3.79	1.41	5.74	5.5	17.7
[24]	-2.14	0.22	3.78	5.35	11.5
[25]	7.19	19.3	11.5	33.2	29.1
[26]	-3.14	-6.46	-5.04	-13.6	17.4
[27]	-5.46	-3.07	8.51	-1.27	21.4
[28]	5.69	5.19	8.1	13.1	11.9
